According to US11203601B2, “Tricyclic compounds as glycogen synthase kinase 3 (GSK3) inhibitors and uses thereof” (The Broad Institute, Inc., priority 2017, dated 2021):

Legend:
Assay in all cases: Carna kinome panel
Type in all cases: biochemical
Conditions in all cases: read-out: % Inhibition at 10 μM of the test compound
p70S6K = p70S6K (Homo sapiens (Human), UniProt P23443)
PKACγ = PKACγ (Homo sapiens (Human), UniProt P22612)
PDK1 = PDK1 (Homo sapiens (Human), UniProt O15530)
PIM1 = PIM1 (Homo sapiens (Human), UniProt P11309)
MLK1_Cascade = MLK1_Cascade (Homo sapiens (Human), UniProt P80192)
p38β = p38β (Homo sapiens (Human), UniProt Q15759)
FGFR3(K650M) = FGFR3(K650M) (Homo sapiens (Human), UniProt P22607, K650M)
PKCγ = PKCγ (Homo sapiens (Human), UniProt P05129)
AKT3 = AKT3 (Homo sapiens (Human), UniProt Q9Y243)
LATS2 = LATS2 (Homo sapiens (Human), UniProt Q9NRM7)
SRPK2 = SRPK2 (Homo sapiens (Human), UniProt P78362)
PKCδ = PKCδ (Homo sapiens (Human), UniProt Q05655)
EML4-ALK = EML4-ALK (Homo sapiens (Human), UniProt Q9UM73)
TXK = TXK (Homo sapiens (Human), UniProt P42681)
TYRO3 = TYRO3 (Homo sapiens (Human), UniProt Q06418)
FLT4 = FLT4 (Homo sapiens (Human), UniProt P35916)
EPHB4 = EPHB4 (Homo sapiens (Human), UniProt P54760)
EGFR(T790M/L858R) = EGFR(T790M/L858R) (Homo sapiens (Human), UniProt P00533, L858R/T790M)
PRKX = PRKX (Homo sapiens (Human), UniProt P51817)
JNK2 = JNK2 (Homo sapiens (Human), UniProt P45984)
TRKB = TRKB (Homo sapiens (Human), UniProt Q16620)
DYRK1B = DYRK1B (Homo sapiens (Human), UniProt Q9Y463)
Procedure: Briefly, a selection of compounds was screened against a panel of kinases at a single concentration of 10 μM. […] This was completed using one of two assays, depending on the kinase being examined: 1) IMAP Assay. A solution of 4× inhibitor, 4× substrate/ATP/metal solution and 2× kinase solution was prepared with assay buffer (20 mM HEPES, 0.01% Tween-20, 2 mM DTT, pH 7.4) and mixed, then incubated in 384-well black plates for 1 hour at room temperature. The IMAP binding reagent (IMAP Screening Express kit; Molecular Devices) was added to each well and incubated for 30 minutes. […] 2) Off-Chip Mobility Shift Assay (MSA). A solution of 4× inhibitor, 4× substrate/ATP/metal solution and 2× kinase solution was prepared with assay buffer (20 mM HEPES, 0.01% Triton X-100, 2 mM DTT, pH 7.5) and mixed, then incubated in 384-well plates for 1 or 5 hours depending on the kinase, at room temperature. Termination buffer (QuickScout Screening assist MSA; Carna Biosciences) was added to each well. The entire reaction mixture was then applied to a LabChip3000 system (Caliper Life Science), and the product and substrate peptide peaks were separated and quantified. […] The entire reaction mixture was then applied to a LabChip3000 system (Caliper Life Science), and the product and substrate peptide peaks were separated and quantified.

MRCKβ = MRCKβ (Homo sapiens (Human), UniProt Q9Y5S2)
DLK_Cascade = DLK_Cascade (Homo sapiens (Human), UniProt Q12852)
MAP2K4_Cascade = MAP2K4_Cascade (Homo sapiens (Human), UniProt P45985)
TEC = TEC (Homo sapiens (Human), UniProt P42680)
ITK = ITK (Homo sapiens (Human), UniProt Q08881)
AurA = AurA (Homo sapiens (Human), UniProt O14965)
EGFR(d746-750) = EGFR(d746-750) (Homo sapiens (Human), UniProt P00533, DEL746-750)
TSSK1 = TSSK1 (Homo sapiens (Human), UniProt Q9BXA7)
MAP2K6_Cascade = MAP2K6_Cascade (Homo sapiens (Human), UniProt P52564)
FYN(isoform b) = FYN(isoform b) (Homo sapiens (Human), UniProt P06241)
PKCζ = PKCζ (Homo sapiens (Human), UniProt Q05513)
DAPK1 = DAPK1 (Homo sapiens (Human), UniProt P53355)
FGFR1(V561M) = FGFR1(V561M) (Homo sapiens (Human), UniProt P11362, V561M)
TNK1 = TNK1 (Homo sapiens (Human), UniProt Q13470)
SYK = SYK (Homo sapiens (Human), UniProt P43405)
WNK1 = WNK1 (Homo sapiens (Human), UniProt Q9H4A3)
MAP3K3_Cascade = MAP3K3_Cascade (Homo sapiens (Human), UniProt Q99759)
FGFR1 = FGFR1 (Homo sapiens (Human), UniProt P11362)

Sequence of TNK1 (Q13470 whole entry): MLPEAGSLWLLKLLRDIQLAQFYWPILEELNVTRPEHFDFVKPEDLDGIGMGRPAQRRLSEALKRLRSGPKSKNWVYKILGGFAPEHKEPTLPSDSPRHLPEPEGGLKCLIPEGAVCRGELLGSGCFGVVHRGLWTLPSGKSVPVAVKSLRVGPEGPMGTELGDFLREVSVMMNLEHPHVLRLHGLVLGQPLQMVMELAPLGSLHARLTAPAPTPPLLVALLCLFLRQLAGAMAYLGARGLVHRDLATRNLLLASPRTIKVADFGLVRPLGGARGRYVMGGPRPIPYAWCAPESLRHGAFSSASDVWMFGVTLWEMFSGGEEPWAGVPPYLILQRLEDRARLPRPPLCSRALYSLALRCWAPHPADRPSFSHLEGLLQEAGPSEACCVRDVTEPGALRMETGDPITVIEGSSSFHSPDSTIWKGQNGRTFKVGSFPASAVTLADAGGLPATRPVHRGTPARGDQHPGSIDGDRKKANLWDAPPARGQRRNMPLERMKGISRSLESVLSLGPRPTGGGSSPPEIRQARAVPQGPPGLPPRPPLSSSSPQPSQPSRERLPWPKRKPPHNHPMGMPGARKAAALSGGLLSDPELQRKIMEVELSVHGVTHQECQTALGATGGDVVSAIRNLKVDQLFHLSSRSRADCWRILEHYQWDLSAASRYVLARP
Sequence of JNK2 (P45984 whole entry): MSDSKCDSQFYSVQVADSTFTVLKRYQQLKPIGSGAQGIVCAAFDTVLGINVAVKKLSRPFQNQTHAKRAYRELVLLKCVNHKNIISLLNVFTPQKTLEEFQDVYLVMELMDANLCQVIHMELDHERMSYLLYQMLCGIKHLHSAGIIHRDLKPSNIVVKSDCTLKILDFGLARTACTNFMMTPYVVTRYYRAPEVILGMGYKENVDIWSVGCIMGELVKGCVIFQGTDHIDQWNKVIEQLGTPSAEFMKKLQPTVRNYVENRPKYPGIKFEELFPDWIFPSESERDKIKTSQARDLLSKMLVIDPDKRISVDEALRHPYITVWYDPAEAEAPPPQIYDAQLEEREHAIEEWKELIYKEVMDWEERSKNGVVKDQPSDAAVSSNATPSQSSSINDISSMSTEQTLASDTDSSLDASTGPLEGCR
Sequence of PIM1 (P11309 whole entry): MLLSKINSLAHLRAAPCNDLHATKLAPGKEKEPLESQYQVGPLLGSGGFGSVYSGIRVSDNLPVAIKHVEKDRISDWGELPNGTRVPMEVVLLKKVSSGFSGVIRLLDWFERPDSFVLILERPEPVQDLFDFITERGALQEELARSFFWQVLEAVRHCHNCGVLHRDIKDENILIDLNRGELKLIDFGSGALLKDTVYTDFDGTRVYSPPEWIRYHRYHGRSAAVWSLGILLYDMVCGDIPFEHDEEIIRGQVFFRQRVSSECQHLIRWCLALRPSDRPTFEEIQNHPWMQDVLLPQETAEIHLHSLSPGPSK
Sequence of EGFR(T790M/L858R) (P00533 25-1210 T790M/L858R): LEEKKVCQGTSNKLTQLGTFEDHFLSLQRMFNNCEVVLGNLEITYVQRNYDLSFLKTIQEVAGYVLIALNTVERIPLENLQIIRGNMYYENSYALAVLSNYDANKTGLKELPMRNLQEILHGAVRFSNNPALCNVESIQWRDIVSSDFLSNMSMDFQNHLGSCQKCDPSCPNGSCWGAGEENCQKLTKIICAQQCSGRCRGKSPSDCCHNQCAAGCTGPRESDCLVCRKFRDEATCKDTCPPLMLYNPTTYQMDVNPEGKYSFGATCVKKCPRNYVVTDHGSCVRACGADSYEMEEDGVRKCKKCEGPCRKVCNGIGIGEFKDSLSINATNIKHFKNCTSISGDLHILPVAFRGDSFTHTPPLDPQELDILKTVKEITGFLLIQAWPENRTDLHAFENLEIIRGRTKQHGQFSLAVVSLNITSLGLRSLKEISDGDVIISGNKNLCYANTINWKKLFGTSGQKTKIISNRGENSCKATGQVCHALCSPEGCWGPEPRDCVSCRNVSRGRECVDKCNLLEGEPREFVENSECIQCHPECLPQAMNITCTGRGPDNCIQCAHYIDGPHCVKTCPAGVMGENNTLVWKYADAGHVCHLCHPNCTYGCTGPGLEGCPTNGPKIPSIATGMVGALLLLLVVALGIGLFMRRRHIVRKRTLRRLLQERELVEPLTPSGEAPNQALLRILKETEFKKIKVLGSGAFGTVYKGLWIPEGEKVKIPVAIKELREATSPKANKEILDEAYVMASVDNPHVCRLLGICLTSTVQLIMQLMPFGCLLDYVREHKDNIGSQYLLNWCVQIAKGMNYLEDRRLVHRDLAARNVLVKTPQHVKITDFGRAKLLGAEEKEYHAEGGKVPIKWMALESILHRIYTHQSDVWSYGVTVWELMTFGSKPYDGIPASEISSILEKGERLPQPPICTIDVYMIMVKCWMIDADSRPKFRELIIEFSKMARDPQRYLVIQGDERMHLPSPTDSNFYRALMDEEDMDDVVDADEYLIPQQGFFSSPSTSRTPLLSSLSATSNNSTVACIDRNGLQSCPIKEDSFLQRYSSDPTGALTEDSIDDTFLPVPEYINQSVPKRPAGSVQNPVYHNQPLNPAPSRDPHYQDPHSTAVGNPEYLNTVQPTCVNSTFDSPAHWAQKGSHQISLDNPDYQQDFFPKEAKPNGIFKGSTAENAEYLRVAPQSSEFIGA
Sequence of TRKB (Q16620 32-822): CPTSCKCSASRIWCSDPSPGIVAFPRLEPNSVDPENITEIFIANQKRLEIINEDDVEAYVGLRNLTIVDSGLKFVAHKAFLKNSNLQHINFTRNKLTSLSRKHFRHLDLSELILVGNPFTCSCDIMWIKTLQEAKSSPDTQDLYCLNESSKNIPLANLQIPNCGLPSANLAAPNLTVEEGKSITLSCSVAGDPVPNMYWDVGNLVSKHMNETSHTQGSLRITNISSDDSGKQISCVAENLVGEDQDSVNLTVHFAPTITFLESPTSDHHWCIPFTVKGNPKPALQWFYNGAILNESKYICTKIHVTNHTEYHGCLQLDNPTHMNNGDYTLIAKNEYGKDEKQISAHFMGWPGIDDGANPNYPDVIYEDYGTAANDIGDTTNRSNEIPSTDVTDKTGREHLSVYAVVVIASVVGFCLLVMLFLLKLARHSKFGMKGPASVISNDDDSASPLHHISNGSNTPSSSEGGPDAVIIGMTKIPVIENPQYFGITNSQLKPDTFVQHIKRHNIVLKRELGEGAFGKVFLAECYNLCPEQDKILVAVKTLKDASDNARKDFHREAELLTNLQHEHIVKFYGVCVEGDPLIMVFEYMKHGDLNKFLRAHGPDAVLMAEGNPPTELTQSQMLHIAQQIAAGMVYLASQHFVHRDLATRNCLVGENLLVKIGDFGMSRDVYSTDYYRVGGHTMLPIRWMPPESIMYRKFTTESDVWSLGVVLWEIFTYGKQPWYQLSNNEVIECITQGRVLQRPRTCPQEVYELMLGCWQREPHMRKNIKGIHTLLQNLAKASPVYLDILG
Sequence of PRKX (P51817 whole entry): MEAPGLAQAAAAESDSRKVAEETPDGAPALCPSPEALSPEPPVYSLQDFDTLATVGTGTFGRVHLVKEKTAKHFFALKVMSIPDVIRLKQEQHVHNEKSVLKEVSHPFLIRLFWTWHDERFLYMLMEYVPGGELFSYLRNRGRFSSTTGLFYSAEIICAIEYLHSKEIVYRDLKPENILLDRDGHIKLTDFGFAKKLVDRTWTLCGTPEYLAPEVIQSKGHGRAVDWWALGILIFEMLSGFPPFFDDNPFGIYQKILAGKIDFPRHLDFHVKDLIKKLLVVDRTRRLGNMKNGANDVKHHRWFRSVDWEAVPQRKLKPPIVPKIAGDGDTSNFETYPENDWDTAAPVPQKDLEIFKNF
Sequence of MAP3K3_Cascade (Q99759 whole entry): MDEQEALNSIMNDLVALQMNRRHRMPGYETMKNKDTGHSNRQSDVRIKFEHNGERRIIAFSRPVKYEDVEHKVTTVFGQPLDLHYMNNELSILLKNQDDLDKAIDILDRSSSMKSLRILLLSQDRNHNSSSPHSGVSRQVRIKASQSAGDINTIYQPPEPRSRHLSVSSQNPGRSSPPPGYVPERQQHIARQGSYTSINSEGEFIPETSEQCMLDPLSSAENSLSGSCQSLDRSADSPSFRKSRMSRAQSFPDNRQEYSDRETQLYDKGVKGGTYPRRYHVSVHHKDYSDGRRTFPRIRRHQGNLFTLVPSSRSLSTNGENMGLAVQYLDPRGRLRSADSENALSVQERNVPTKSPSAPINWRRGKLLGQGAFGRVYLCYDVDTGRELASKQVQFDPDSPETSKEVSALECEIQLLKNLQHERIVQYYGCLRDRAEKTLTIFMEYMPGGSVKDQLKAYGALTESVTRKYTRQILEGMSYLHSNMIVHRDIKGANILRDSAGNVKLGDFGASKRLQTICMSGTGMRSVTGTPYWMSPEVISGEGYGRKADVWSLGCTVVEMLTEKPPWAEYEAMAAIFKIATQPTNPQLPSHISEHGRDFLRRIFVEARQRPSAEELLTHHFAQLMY
Sequence of FYN(isoform b) (P06241 other isoform, or with tags, fused parts or gaps): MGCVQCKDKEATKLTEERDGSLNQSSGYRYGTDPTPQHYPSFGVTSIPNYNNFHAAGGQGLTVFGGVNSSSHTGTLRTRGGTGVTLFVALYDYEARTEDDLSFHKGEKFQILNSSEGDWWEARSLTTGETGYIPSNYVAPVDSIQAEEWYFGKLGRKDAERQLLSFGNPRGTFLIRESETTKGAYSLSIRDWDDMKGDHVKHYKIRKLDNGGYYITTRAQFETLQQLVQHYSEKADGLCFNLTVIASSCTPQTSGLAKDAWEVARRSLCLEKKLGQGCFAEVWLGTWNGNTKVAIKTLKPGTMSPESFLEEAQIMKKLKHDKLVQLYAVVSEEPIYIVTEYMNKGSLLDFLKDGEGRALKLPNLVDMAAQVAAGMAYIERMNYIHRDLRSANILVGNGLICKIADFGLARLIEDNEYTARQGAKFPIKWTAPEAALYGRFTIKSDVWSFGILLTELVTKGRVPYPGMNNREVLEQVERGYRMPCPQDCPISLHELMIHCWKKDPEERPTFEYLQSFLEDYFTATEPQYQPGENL

CCC1(c2ccccc2)C2=C(CC(C)(C)CC2=O)Nc2ncsc21 (stereo not shown) [Compound 1, 9-Ethyl-6,6-dimethyl-9-phenyl-5,6,7,9-tetrahydrothiazolo[4,5-b]quinolin-8(4H)-one]
inhibition at 10 µM (p70S6K): 2.9% | inhibition at 10 µM (PKACγ): -5.6% | inhibition at 10 µM (PDK1): -4% | inhibition at 10 µM (PIM1): 0% | inhibition at 10 µM (MLK1_Cascade): 7.5% | inhibition at 10 µM (p38β): 3.8% | inhibition at 10 µM (FGFR3(K650M)): -4% | inhibition at 10 µM (PKCγ): -7.7% | inhibition at 10 µM (AKT3): -4.5% | inhibition at 10 µM (LATS2): 5.4% | inhibition at 10 µM (SRPK2): 3.1% | inhibition at 10 µM (PKCδ): 2.4% | inhibition at 10 µM (EML4-ALK): 2.9% | inhibition at 10 µM (TXK): -1.3% | inhibition at 10 µM (TYRO3): 3.8% | inhibition at 10 µM (FLT4): -0.2% | inhibition at 10 µM (EPHB4): 5.3% | inhibition at 10 µM (EGFR(T790M/L858R)): -15.5% | inhibition at 10 µM (PRKX): 4.2% | inhibition at 10 µM (JNK2): -1.5% | inhibition at 10 µM (TRKB): 16% | inhibition at 10 µM (DYRK1B): -18.1% | inhibition at 10 µM (MRCKβ): 2% | inhibition at 10 µM (DLK_Cascade): 2.5% | inhibition at 10 µM (MAP2K4_Cascade): 3.7% | inhibition at 10 µM (TEC): -9.1% | inhibition at 10 µM (ITK): 0% | inhibition at 10 µM (AurA): 0.4% | inhibition at 10 µM (EGFR(d746-750)): -6.1% | inhibition at 10 µM (TSSK1): -5% | inhibition at 10 µM (MAP2K6_Cascade): 5.6% | inhibition at 10 µM (FYN(isoform b)): 2.4% | inhibition at 10 µM (PKCζ): 0.5% | inhibition at 10 µM (DAPK1): -8.7% | inhibition at 10 µM (FGFR1(V561M)): 2.6% | inhibition at 10 µM (TNK1): 11.7% | inhibition at 10 µM (SYK): -5.8% | inhibition at 10 µM (WNK1): -2.1% | inhibition at 10 µM (MAP3K3_Cascade): 11.1% | inhibition at 10 µM (FGFR1): -5%
